From patent publication US11136296B2, “Substituted N-arylethyl-2-arylquinoline-4-carboxamides and use thereof” (Bayer Aktiengesellschaft, priority 2017, dated 2021)

Assays:
FP receptor = FP receptor (Homo sapiens (Human), UniProt P43088); assay: In vitro test of inhibition of human FP receptor activity (PGF2α-induced calcium flux in FP-expressing CHEM1 cells); format: cell-based; settings: PGF2α-induced (2 nM) calcium flux in FP-expressing CHEM1 cells; some as mean values from multiple determinations
Description: Table 1 below lists the IC50 values from this assay for individual working examples of the invention (some as mean values from multiple independent individual determinations): […]

[1] = tested on: fluprostenol-induced mechanical sensitivity; assay: Effects of FP antagonists on mechanical sensitivity (von Frey test, fluprostenol-induced mechanical allodynia); format: in vivo, mouse; settings: for 50% Paw Response Threshold, mean: Ex. 153 90 mg/kg PO, male ND4 mice; for effect on 50% Paw Response Thresholds compared to vehicle-treated animals: group treated with […] fluprostenol, oral 90 mg/kg
Description: B-24. Effects of FP Antagonists on Mechanical Sensitivity (Peripheral, Mouse)
Mechanical allodynia was examined using the von Frey test on the injected and uninjected rear paws several times after the injection.
Mechanical allodynia was measured with […] (Stölting©; Wood Dale, Ill., USA) having different stiffness (0.04; 0.07; 0.16; 0.4; 1.0. 4.0 and 8.0 g) by the up-down method (Chaplan et al., J. Neurosci. Meth. 1994, 53, 56-63). Intact male ND4 mice (30 g, 10 animals per group) were placed in individual acrylic chambers on a metal grid surface, and were allowed to get used to their environment for at least 15 minutes before the testing. Each filament was pressed with sufficient force at right angles to the underside of the paw, in order to cause slight bending against the paw, and was held for about 6 seconds or until a positive response was registered (paw quickly withdrawn). The testing was commenced with the 0.4 g filament. If the paw was not withdrawn, the next strongest stimulus was used. In the case that the paw was withdrawn, the next weakest stimulus was used. This process was repeated until up to 4 responses had been obtained after the initial change in response (no response after positive response or positive response after no response). […] The 50% paw response threshold was calculated using the following formula:
[formula] • Xf=value (in logarithmic units) of the last von Frey filament used • k=table value for the pattern of positive/negative responses (see Chaplan et al., J. Neurosci. Meth. 1994, 53, 56-63, Annex 1, page 62) • δ=average difference (in logarithmic units) between the stimuli
The mean and […] of the mean (SEM) was determined for each paw for each treatment group at each time point.
In order to assess the analgesic effect of an FP antagonist on fluprostenol-induced mechanical sensitivity, the test substance from Ex. 153 (90 mg/kg) was administered 2 hours before and 8 and 22 hours after the injection of fluprostenol. Ipsilateral and contralateral 50% paw response thresholds were examined prior to the administration of fluprostenol and 0.5, 2, 6 and 24 h after the administration.

FP receptor, sequence (P43088 whole entry): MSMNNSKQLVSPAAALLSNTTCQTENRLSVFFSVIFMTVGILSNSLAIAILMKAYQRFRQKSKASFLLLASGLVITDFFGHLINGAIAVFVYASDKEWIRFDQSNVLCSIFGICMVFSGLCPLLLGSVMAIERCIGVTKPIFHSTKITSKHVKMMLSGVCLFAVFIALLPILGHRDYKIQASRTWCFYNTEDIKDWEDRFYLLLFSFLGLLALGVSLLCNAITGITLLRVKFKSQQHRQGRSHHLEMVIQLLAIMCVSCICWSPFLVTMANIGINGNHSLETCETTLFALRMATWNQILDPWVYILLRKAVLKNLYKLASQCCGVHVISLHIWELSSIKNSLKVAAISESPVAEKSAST

## Cc1c(-c2ccccc2)nc2ccc(Br)cc2c1C(=O)NCC(CCC(=O)O)c1ccccc1Cl (single isomer, unassigned; (+)) [Ex. 153, (+)-5-{[(6-Bromo-3-methyl-2-phenylquinolin-4-yl)carbonyl]amino}-4-(2-chlorophenyl)pentanoic Acid]
FP receptor
  IC50: 9 nM
[1]; Group 2: fluprostenol ~[…] IPL, 0.5 h
  50% Paw Response Threshold, mean: 2.65 g
[1]; Group 2: fluprostenol ~[…] IPL, 2 h
  50% Paw Response Threshold, mean: 2.403 g
[1]; Group 2: fluprostenol ~[…] IPL, 6 h
  50% Paw Response Threshold, mean: 1.89 g
[1]; Group 2: fluprostenol ~[…] IPL, 24 h
  50% Paw Response Threshold, mean: 3.245 g
[1]; Group 2: fluprostenol ~[…] IPL, BL (baseline)
  50% Paw Response Threshold, mean: 4.421 g
[1]; Group 4: fluprostenol ~[…] IPL, 0.5 h
  50% Paw Response Threshold, mean: 0.728 g
[1]; Group 4: fluprostenol ~[…] IPL, 2 h
  50% Paw Response Threshold, mean: 0.716 g
[1]; Group 4: fluprostenol ~[…] IPL, 6 h
  50% Paw Response Threshold, mean: 1.57 g
[1]; Group 4: fluprostenol ~[…] IPL, 24 h
  50% Paw Response Threshold, mean: 1.683 g
[1]; Group 4: fluprostenol ~[…] IPL, BL (baseline)
  50% Paw Response Threshold, mean: 4.215 g
[1]; 0.5 hours after the fluprostenol injection
  effect on 50% Paw Response Thresholds compared to vehicle-treated animals: increased the “50% Paw Response Thresholds” 0.5 hours after the fluprostenol injection significantly
[1]; 24 hours after the fluprostenol injection
  effect on 50% Paw Response Thresholds compared to vehicle-treated animals: increased the “50% Paw Response Thresholds” 24 hours after the fluprostenol injection significantly
